Laboratory results reported in patent US8748117B2, “Probe for detection and quantification of nitric oxide, and method for detecting and quantifying nitric oxide using the same” (Japan Science and Technology Agency, priority 2004, dated 2014).
“Also recorded” adds a separate entry of the source.

Tests used:
[1] = tested on: endothelial cells from bovine pulmonary artery; test: NOA-1 CFP/YFP emission ratio in vascular endothelial cells; assay type: cell-based
Experimental: (§1) (1) NOA-1 was expressed in endothelial cells from bovine pulmonary artery cultured in a serum-supplemented media. […] This is based on difference of basal NO concentration between CHO-K1 cell and vascular endothelial cell. (3) Endothelial cells and CHO-K1 cells were pretreated with an inhibitor for nitric oxide synthase (NOS), 1 mM L-NAME and the CFP/YFP emission ratio of NOA-1 was observed.
(4) The response of NOA-1 for excess NOC-7 between the endothelial and CHO-K1 cells was compared.
We stimulated the endothelial and CHO-K1 cells with 10 μM NOC-7, which generates enough concentration of NO to immediately saturate the NOA-1 response. […] As a result, in endothelial cells, the obtained change in the emission ratio upon the excess NOC-7 stimulation was actually only one-third of that in CHO-K1 cells (FIG. 13B).
(§2) (6) The basal concentration of NO in each vascular endothelial cell was measured. We first inhibited endogenous eNOS with 1 mM L-NAME to remove the basal NO and cGMP generated by the basal NO. The CFP/YFP emission ratios before and after the inhibition of endogenous eNOS, respectively, represent the basal and zero concentrations of NO in each endothelial cell (FIG. 15). To quantitate the basal concentration of NO, we subsequently added various concentrations of NO to each endothelial cell, in which eNOS activity was inhibited with L-NAME. The peak response of NOA-1 was plotted at each concentration of NO. Based on the obtained dose-response of NOA-1 for various concentrations of NO, we measured 1 nM of the basal NO concentration generated in each endothelial cell.

[2] = tested on: CHO-K1 cells expressed with NOA-1; test: Selectivity of NOA-1 FRET response (CO, natriuretic peptide, cAMP generation); assay type: cell-based; conditions: for CFP/YFP emission ratio of NOA-1: excess concentration, several cultured cell types including CHO-K1 cells
Description: As to the selectivity of NOA-1, the FRET response of NOA-1 for carbon monoxide (CO) was examined.
CO is a sGC activator but has a lower affinity with sGC than NO. In addition, the CO-bound sGC is known to have much lower cyclase activity than NO-bound sGC because of each different coordination to the heme iron. Physiologically generated CO thus appears not to affect the response of NOA-1.
Effect of natriuretic peptide stimulation or cAMP generation on the FRET response of NOA-1 was examined.

[3] = biological target: T1, nitric oxide synthase (NOS) (Bos taurus, UniProt P29473); test: NOS inhibitor effect on NOA-1 emission ratio in endothelial cells; assay type: cell-based, bovine; conditions: 1 mM L-NAME
T1 construct: endogenous in cells; host or cells: bovine pulmonary artery endothelial cells
T1 sequence (P29473 2-1205 limits assumed): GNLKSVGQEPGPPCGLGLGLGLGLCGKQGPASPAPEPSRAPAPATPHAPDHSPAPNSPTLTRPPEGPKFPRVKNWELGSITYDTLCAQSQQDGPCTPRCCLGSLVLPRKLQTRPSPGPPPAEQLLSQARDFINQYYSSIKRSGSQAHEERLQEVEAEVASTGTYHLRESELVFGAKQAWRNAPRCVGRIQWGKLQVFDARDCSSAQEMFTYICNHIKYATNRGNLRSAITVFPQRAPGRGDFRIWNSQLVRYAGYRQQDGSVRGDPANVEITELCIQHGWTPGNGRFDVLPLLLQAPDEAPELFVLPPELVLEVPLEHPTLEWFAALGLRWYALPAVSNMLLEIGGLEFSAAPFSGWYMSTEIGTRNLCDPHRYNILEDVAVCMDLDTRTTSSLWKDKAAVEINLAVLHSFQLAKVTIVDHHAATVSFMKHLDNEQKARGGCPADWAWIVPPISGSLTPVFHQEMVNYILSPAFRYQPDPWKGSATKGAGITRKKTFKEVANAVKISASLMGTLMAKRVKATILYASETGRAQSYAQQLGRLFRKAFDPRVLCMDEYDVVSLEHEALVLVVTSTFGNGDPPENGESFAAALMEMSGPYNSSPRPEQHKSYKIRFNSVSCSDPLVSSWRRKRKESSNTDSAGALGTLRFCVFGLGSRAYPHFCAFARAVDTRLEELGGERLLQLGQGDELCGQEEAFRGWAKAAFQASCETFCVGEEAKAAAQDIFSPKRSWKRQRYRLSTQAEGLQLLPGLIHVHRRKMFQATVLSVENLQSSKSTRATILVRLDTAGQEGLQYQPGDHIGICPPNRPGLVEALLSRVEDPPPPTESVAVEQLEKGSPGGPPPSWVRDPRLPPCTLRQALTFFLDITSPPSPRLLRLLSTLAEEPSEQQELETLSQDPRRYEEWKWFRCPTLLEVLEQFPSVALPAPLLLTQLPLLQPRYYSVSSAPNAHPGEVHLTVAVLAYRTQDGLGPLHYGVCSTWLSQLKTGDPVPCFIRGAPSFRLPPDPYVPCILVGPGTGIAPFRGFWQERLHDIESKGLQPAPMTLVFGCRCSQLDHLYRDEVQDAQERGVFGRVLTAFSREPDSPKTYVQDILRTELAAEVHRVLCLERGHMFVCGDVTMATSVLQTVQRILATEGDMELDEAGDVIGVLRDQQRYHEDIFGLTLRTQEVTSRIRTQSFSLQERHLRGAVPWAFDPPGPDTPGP
Experimental: as §1

[4] = tested on: nitric oxide synthase (NOS); test: NOS inhibitor effect on NOA-1 emission ratio in CHO-K1 cells; assay type: cell-based; conditions: 1 mM L-NAME
Experimental: as §1

[5] = tested on: phosphatidyl inositol 3-kinase (PI(3)K); test: PI(3)K inhibitor effect on basal NO (NOA-1 emission ratio) in endothelial cells; assay type: cell-based, bovine
Experimental: The stable generation of the basal NO concentration was examined in vascular endothelial cells cultured in a serum-containing medium.
That is, the endothelial cells expressing NOA-1 was added with 100 μM LY 294002), and the CFP/YFP emission ratio was monitored for the NO concentrations in the cells.

[6] = tested on: CHO-K1 cells expressing NOA-1; test: CFP/YFP emission ratio of NOA-1 in CHO-K1 cells upon NOC-7 / NO stimulation; assay type: cell-based
Experimental: cDNAs respectively expressing the hybrid proteins were constructed. The hybrid proteins respectively comprise cGMP-visualization probe (hereinafter described as CGY) connected with C-terminus of sGCα or sGCβ through the linker of SEC ID NO.1 (GGEQKLISEEDLLESR). The CYG was prepared according to the method in Patent documents 1 and 2. The heterodimmer of the hybrid proteins was named as “NOA-1” (fluorescent indicator for NO with a signal amplifier) (FIGS. 2A and B). At N-terminus of NOA-1, FLAG tag of SEC ID NO.2 (MDYKDDDDK) may be attached.
(§3) Two cDNAs were introduced into CHO K1 cells having little amount of endogenous sGC thereby coexpressing both sGCα-CGY and sGCβ-CGY in the cells.
In the same manner as in Example 1, both sGCα-CGY and sGCβ-CGY were coexpressed in CHO-K1 cells.
In the same manner as in Example 1, the CHO-K1 cells coexpressed with both sGCα and sGCβ were stimulated with various amount of NOC-7 to measure the changes of CFP/YFP emission ratio dependent to NO concentrations (FIG. 6).
In the same manner as in Example 1, the CHO-K1 cells expressing NOA-1 were stimulated with various amount of NOC-7 to measure the changes of CFP/YFP emission ratio by NO and 8-Br-cGMP stimulations (FIGS. 7A and 7B).
The NO-dependent FRET response of NOA-1 was confirmed by using NO solutions prepared by bubbling NO gas. […] Importantly, NOA-1 senses not only an increase in the NO concentration but also its removal by oxidation and/or volatilization. This NO-dependent reversible response of NOA-1 is caused by the reversible binding of NO to the heme group in NOA-1 and endogenous phosphodiesterases that immediately hydrolyze the generated cGMP molecules after the removal of NO.

[7] = tested on: CHO-K1 cells expressed with sGCα-CGY or sGCβ-CGY; test: CFP/YFP emission ratio in CHO-K1 cells expressing sGCα-CGY or sGCβ-CGY alone; assay type: cell-based; conditions: subsequent addition of 2 mM 8-Br-cGMP after 50 nM NOC-7
sGC = test: Block of the NOC-7 response of NOA-1 by sGC inhibitor pretreatment in CHO-K1 cells; assay type: cell-based; conditions: cells pretreated with NS 2028 (100 μM, FIG. 3-b)
Description: as §3

phosphodiesterases (PDE) = test: Effect of PDE inhibitor on NOA-1 emission ratio in CHO-K1 cells; assay type: cell-based
Experimental: as §3
The latter recovery of the decreased emission ratio disappeared when the cells were pretreated with an inhibitor of phosphodiesterases (PDE) that hydrolyses cGMP, zaprinast (FIG. 3-c).
as §2

phosphodiesterases = test: PDE inhibitor effect on NOA-1 emission ratio in endothelial cells; assay type: cell-based, bovine; conditions: 200 μM zaprinast; endothelial cells expressing NOA-1

insulin: stimulation activates the PI(3)K-Akt pathway
NO concentration in the endothelial cells ([1]; insulin stimulation): further increases the NO concentration

CC(C)NCC(O)c1ccc(O)c(O)c1 (stereo not drawn) [isoproterenol]
CFP/YFP emission ratio of NOA-1 [2]: no significant change

[C-]#[O+] [CO, carbon monoxide]
response of NOA-1 compared with that for 5 nM NO ([2]; 100 μM CO): transient but much smaller response | CFP/YFP emission ratio ([2]; CO up to 10 μM): no significant change

COC(=O)[C@@H](N)CCCNC(=N)N[N+](=O)[O-] [L-NAME]
CFP/YFP emission ratio of NOA-1 [3]: gradually increased | CFP/YFP emission ratio of NOA-1 [4]: no significant change

O=c1cc(N2CCOCC2)oc2c(-c3ccccc3)cccc12 [LY 294002, 2-(4-morpholinyl)-8-phenyl-1(4H)-benzopyran-4-one]
time to reach plateau of the emission ratio ([5]; 100 μM LY 294002): ≤ 25 min | emission ratio ([5]; 100 μM LY 294002, endothelial cells expressing NOA-1): significantly increased | effect on basal NO ([5]; endothelial cells, serum-containing medium): removed the basal NO concentration; also recorded: inhibitory effect on basal NO generation

CC[C@H](C)[C@@H]1NC(=O)[C@H](CCCNC(=N)N)NC(=O)[C@H](CC(=O)O)NC(=O)[C@H](CCSC)NC(=O)[C@H](CCCNC(=N)N)NC(=O)CNC(=O)CNC(=O)[C@H](Cc2ccccc2)NC(=O)[C@@H](NC(=O)[C@H](CO)NC(=O)[C@H](CO)NC(=O)[C@H](CCCNC(=N)N)NC(=O)[C@H](CCCNC(=N)N)NC(=O)[C@H](CC(C)C)NC(=O)[C@@H](N)CO)CSSC[C@@H](C(=O)N[C@@H](CC(N)=O)C(=O)N[C@@H](CO)C(=O)N[C@@H](Cc2ccccc2)C(=O)N[C@@H](CCCNC(=N)N)C(=O)N[C@@H](Cc2ccc(O)cc2)C(=O)O)NC(=O)CNC(=O)[C@H](CC(C)C)NC(=O)CNC(=O)[C@H](CO)NC(=O)[C@H](CCC(N)=O)NC(=O)[C@H](C)NC(=O)CNC1=O [atrial natriuretic peptide]
CFP/YFP emission ratio of NOA-1 [2]: no significant change

Nc1nc2c(nc(Br)n2[C@@H]2O[C@@H]3COP(=O)(O)O[C@H]3[C@H]2O)c(=O)[nH]1 [8-Br-cGMP]
plateau response of CFP/YFP emission ratio ([6]; addition of 2 mM 8-Br-cGMP after 100 nM NOC-7): did not further decrease | CFP/YFP emission ratio [7]: quick decrease

O=c1onc2n1-c1cc(Br)ccc1OC2 [NS 2028]
transient change in the emission ratio by 5 nM NOC-7 (sGC): completely blocked

CNCCCNN(N=O)C(C)CO (stereo not drawn) [NOC-7, 3-(2-hydroxy-1-methylethyl-2-nitrosohydrazino)-N-methyl-1-propanamine]
CFP/YFP emission ratio ([6]; 1 nM or 5 nM NOC-7): dose-dependent transient response; also recorded: NO-dependent transient change | CFP/YFP emission ratio ([6]; 10 nM NOC-7): reaches a plateau and then slowly recovered to the initial level; also recorded: quick decrease | CFP/YFP emission ratio ([6]; 50 nM or 100 nM NOC-7): did not show no recovery to the initial level even after 20 minutes | CFP/YFP emission ratio ([6]; 100 nM NOC-7, after reaching the plateau): did not subsequently show significant recovery for at least 10 min | CFP/YFP emission ratio response on repeated stimulation ([6]; second 5 nM NOC-7 stimulation after recovery to the initial value): same transient response | CFP/YFP emission ratio ([6]; stimulated with 5 nM NOC-7, CHO-K1 coexpressing sGCα-CGY and sGCβ-CGY): immediately decreased but gradually recovered up to the initial level | change in the emission ratio upon excess NOC-7 in endothelial cells relative to CHO-K1 cells ([1]; 10 μM NOC-7): one-third | emission ratios ([1]; 10 μM NOC-7, endothelial and CHO-K1 cells): immediately decreased

CCCOc1ccccc1-c1nc2nn[nH]c2c(=O)[nH]1 [zaprinast]
latter recovery of the decreased emission ratio after 5 nM NOC-7 (phosphodiesterases (PDE); cells pretreated with zaprinast (200 μM, FIG. 3-c)): disappeared | emission ratio (phosphodiesterases (PDE); treatment with zaprinast, NOA-1 in CHO-K1): no significant change | CFP/YFP emission ratio (phosphodiesterases): gradually decreased and reached the saturation of NOA-1 response
